In patent US20240109917A1 (ACTELION PHARMACEUTICALS LTD, priority 2020, published 2024) one finds IC50 data, which are given here for 16 molecules.

For experiment [1], the target named is His6-TEV-PDGFRβ (557-1016) (Homo sapiens (Human), UniProt P09619). Kind of experiment: PDGFRβ HTRF Assay. Type of experiment: biochemical. Particulars: read-out: PDGFR HTRF IC50. A digest of the protocol: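 Human PDGFRβ (557-1016) pre-incubated with compound for 30 min at RT in pH 7.5 HEPES/MgCl2/EGTA/Brij-35/DTT buffer. Reaction started with ATP and TK-biotin peptide, run 3 h at RT, then quenched with EDTA-containing Eu-cryptate antibody/streptavidin-XL665. HTRF 665/620 nm ratio read after 60 min; percent inhibition relative to DMSO and 10 μM imatinib controls.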
A general note: Time-resolved FRET reads energy transfer from a long-lived donor to a nearby acceptor.

Experiment [2] addresses Tb-labeled inactive PDGFRβ (Homo sapiens (Human), UniProt P09619). As to the kind of experiment: PDGFRβ LanthaScreen Assay. The format is binding. Conditions: read-out: PDGFR Lantha IC50.
Another experiment has as its target PDGFRβ (Rattus norvegicus (Rat), UniProt Q05030). As to the kind of experiment: PDGFRβ Cellular Assay (PDGFRb P-Y751 HTRF in A10 cells stimulated with PDGF-BB). The format is cell-based. In a few lines: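 Rat A10 cells, plated overnight, were treated with compound for 3 hours, then stimulated with PDGF-BB (working stock 100 ng/mL in 10% FBS medium). After lysis, PDGFRβ P-Y751 was detected by HTRF.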

Broadly, the IC50 is the concentration at which inhibition is half-maximal.

Read-outs that look alike come from different tables or passages of the source.

Sequence of His6-TEV-PDGFRβ (557-1016) (P09619 557-1016): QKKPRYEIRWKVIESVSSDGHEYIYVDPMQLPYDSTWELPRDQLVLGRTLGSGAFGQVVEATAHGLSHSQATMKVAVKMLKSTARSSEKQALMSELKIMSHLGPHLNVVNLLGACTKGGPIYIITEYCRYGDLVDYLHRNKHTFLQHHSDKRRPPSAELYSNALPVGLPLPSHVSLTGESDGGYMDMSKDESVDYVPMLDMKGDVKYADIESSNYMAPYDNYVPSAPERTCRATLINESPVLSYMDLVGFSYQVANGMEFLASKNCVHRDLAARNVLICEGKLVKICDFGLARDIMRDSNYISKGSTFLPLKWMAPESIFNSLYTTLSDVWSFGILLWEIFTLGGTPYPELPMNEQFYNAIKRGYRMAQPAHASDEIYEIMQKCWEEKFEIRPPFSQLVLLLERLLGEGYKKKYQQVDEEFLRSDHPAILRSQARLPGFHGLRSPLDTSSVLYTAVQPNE
Sequence of PDGFRβ (Q05030 32-1097): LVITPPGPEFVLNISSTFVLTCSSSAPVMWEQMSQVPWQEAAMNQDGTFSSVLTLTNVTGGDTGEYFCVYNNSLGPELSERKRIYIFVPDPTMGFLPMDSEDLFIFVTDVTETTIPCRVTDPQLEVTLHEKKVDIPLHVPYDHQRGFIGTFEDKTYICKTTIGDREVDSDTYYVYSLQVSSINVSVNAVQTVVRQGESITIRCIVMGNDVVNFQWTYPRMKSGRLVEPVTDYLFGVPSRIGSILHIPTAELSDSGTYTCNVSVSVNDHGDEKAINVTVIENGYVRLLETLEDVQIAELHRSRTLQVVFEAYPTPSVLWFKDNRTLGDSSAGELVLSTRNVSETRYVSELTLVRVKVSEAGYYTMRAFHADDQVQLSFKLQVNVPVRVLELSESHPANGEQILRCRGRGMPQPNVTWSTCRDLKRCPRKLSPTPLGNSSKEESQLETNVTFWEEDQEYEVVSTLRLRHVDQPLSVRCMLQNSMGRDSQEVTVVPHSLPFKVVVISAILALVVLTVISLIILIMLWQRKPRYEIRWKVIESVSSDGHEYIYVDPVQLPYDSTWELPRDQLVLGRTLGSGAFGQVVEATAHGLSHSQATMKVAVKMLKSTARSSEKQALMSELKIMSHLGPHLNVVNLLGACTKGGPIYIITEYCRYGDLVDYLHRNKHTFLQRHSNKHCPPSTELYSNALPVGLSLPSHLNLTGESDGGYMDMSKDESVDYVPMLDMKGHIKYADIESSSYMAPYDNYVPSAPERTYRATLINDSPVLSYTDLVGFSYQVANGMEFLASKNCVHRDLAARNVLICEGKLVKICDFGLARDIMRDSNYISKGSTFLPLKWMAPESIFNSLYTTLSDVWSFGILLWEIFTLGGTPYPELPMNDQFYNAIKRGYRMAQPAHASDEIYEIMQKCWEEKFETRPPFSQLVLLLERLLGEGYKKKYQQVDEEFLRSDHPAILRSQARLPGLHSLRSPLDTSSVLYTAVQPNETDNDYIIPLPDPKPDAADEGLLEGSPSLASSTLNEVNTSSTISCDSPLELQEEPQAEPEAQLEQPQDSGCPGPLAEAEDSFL
Sequence of Tb-labeled inactive PDGFRβ (P09619 33-1106): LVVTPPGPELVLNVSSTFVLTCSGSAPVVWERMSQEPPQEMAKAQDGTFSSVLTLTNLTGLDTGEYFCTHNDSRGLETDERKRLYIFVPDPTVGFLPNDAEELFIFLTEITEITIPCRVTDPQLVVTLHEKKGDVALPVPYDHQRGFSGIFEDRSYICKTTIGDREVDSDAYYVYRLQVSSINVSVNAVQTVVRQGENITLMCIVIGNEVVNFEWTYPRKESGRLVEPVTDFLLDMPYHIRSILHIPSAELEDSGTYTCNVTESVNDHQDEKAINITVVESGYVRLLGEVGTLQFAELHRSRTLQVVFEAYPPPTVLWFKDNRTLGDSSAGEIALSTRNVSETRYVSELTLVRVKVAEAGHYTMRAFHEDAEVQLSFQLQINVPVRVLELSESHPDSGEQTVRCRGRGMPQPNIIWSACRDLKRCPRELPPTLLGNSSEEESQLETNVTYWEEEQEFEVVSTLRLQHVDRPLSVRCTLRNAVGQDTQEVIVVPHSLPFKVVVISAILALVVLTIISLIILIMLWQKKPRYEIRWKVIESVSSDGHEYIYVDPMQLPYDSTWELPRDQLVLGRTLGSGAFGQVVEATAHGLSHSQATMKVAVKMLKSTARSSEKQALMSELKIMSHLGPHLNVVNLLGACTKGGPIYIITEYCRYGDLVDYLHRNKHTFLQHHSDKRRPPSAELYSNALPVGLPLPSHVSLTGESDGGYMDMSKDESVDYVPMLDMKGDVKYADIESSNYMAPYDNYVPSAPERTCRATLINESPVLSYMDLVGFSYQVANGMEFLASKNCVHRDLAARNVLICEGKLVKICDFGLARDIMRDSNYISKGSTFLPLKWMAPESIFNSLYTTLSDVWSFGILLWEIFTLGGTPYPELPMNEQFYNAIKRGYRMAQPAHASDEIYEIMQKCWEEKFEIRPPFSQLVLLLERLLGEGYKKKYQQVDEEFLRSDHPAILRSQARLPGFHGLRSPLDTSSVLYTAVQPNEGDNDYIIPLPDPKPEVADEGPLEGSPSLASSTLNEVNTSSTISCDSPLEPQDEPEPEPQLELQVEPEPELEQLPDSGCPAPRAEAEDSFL

Consider `Cc1cc(C(=O)NCC(C)(C)N2CCCC2)sc1NC(=O)c1cnn2cc(-c3cnn(C)c3)sc12` [Example 202, 2-(1-methyl-1H-pyrazol-4-yl)-N-(3-methyl-5-((2-methyl-2-(pyrrolidin-1-yl)propyl)carbamoyl)thiophen-2-yl)pyrazolo[5,1-b]thiazole-7-carboxamide], for which the figures for the IC50 (in experiment [1]; in experiment [2]; against PDGFRβ (PDGFR Cellular IC50)) were 1070 nM, greater than 3000 nM and greater than 3000 nM, respectively.
Regarding `Cc1cc(C(=O)NCCN(C)C2CCOCC2)sc1NC(=O)c1cnn2cc(-c3cnn(C)c3)sc12` [Example 192, 2-(1-methyl-1H-pyrazol-4-yl)-N-(3-methyl-5-((2-(methyl(tetrahydro-2H-pyran-4-yl)amino)ethyl)carbamoyl)thiophen-2-yl)pyrazolo[5,1-b]thiazole-7-carboxamide], the half-inhibitory concentration (IC50) in experiment [1] is 34.6 nM; in experiment [2], 1380 nM; on PDGFRβ (read-out: PDGFR Cellular IC50), greater than 3000 nM.
As for `Cc1ncc(C(=O)NCCN2CC3CCC2C3)cc1NC(=O)c1cnn2cc(-c3cn(C)nc3C)sc12` (stereo not drawn) [Example 212, N-(5-((2-(2-azabicyclo[2.2.1]heptan-2-yl)ethyl)carbamoyl)-2-methylpyridin-3-yl)-2-(1,3-dimethyl-1H-pyrazol-4-yl)pyrazolo[5,1-b]thiazole-7-carboxamide], the IC50 in experiment [1] is 0.3 nM; in experiment [2], 1.3 nM; at PDGFRβ (read-out: PDGFR Cellular IC50), 104 nM.
For `Cc1cc(C(=O)NCCN2CCC(C)(C)CC2)sc1NC(=O)c1cnn2cc(-c3cnn(C)c3)sc12` [Example 183, N-(5-((2-(4,4-dimethylpiperidin-1-yl)ethyl)carbamoyl)-3-methylthiophen-2-yl)-2-(1-methyl-1H-pyrazol-4-yl)pyrazolo[5,1-b]thiazole-7-carboxamide], the IC50 in experiment [1] is 11.1 nM; in experiment [2], 652 nM; at PDGFRβ (read-out: PDGFR Cellular IC50) it was 178 nM.
`Cc1ncc(NC(=O)OCC(C)(C)N2CCCC2)cc1NC(=O)c1cnn2cc(-c3cnn(C)c3)sc12` [Example 249, 2-methyl-2-(pyrrolidin-1-yl)propyl (6-methyl-5-(2-(1-methyl-1H-pyrazol-4-yl)pyrazolo[5,1-b]thiazole-7-carboxamido)pyridin-3-yl)carbamate]: the IC50 in experiment [1] was determined as 0.5 nM; in experiment [2], 6.5 nM; at PDGFRβ (read-out: PDGFR Cellular IC50), 59.8 nM.
In the case of `Cc1ncc(C(=O)NCCN2CC3CCC2CC3)cc1NC(=O)c1cnn2cc(-c3cnn(C(F)F)c3)sc12` [Example 180, N-(5-((2-(2-azabicyclo[2.2.2]octan-2-yl)ethyl)carbamoyl)-2-methylpyridin-3-yl)-2-(1-(difluoromethyl)-1H-pyrazol-4-yl)pyrazolo[5,1-b]thiazole-7-carboxamide], the IC50 came to 0.4 nM in experiment [1], 6.1 nM in experiment [2] and 38.4 nM on PDGFRβ (PDGFR Cellular IC50).
On to `Cc1ncc(C(=O)NCCN2CCCC2(C)C)cc1NC(=O)c1cnn2cc(-c3cncc(S(C)(=O)=O)c3)sc12` [Example 230, N-(5-((2-(2,2-dimethylpyrrolidin-1-yl)ethyl)carbamoyl)-2-methylpyridin-3-yl)-2-(5-(methylsulfonyl)pyridin-3-yl)pyrazolo[5,1-b]thiazole-7-carboxamide], for which the results for the IC50 (in experiment [1]; in experiment [2]; on PDGFRβ (read-out: PDGFR Cellular IC50)) were 3.2 nM, 82.9 nM and 791 nM, respectively.
`Cc1ncc(C(=O)NCCN2CCCC23CCC3)cc1NC(=O)c1cnn2cc(-c3cn(C)nc3C)sc12` [Example 213, N-(5-((2-(5-azaspiro[3.4]octan-5-yl)ethyl)carbamoyl)-2-methylpyridin-3-yl)-2-(1,3-dimethyl-1H-pyrazol-4-yl)pyrazolo[5,1-b]thiazole-7-carboxamide]: the IC50 in experiment [1] turned out to be 0.3 nM; in experiment [2], 1.9 nM; at PDGFRβ (read-out: PDGFR Cellular IC50) it was 2.4 nM.
Taken in the same sequence, the figures for `Cc1cc(C(=O)NCCN2CCOCC23CC3)sc1NC(=O)c1cnn2cc(-c3cnn(C)c3)sc12` [Example 197, N-(5-((2-(7-oxa-4-azaspiro[2.5]octan-4-yl)ethyl)carbamoyl)-3-methylthiophen-2-yl)-2-(1-methyl-1H-pyrazol-4-yl)pyrazolo[5,1-b]thiazole-7-carboxamide] were 11.5 nM, 51 nM and 613 nM.
Taken in the same sequence, the figures for `Cc1ncc(C(=O)NCCN2CCCC2(C)C)cc1NC(=O)c1cnn2cc(-c3cnn(CCC(O)CO)c3)sc12` (stereo not drawn) [Example 221, 2-(1-(3,4-Dihydroxybutyl)-1H-pyrazol-4-yl)-N-(5-((2-(2,2-dimethylpyrrolidin-1-yl)ethyl)carbamoyl)-2-methylpyridin-3-yl)pyrazolo[5,1-b]thiazole-7-carboxamide] were 0.9 nM, 7.1 nM and 1710 nM.
On to `Cc1ncc(NC(=O)CCCN2CCC23CCC3)cc1NC(=O)c1cnn2cc(-c3cnn(C)c3)sc12` [Example 215, N-(5-(4-(1-azaspiro[3.3]heptan-1-yl)butanamido)-2-methylpyridin-3-yl)-2-(1-methyl-1H-pyrazol-4-yl)pyrazolo[5,1-b]thiazole-7-carboxamide], for which the IC50 in experiment [1] worked out at 0.5 nM; in experiment [2], 16.8 nM; on PDGFRβ (PDGFR Cellular IC50), 80.1 nM.
For the molecule `Cc1cc(C(=O)NCCN2CCCC2(C)C)sc1NC(=O)c1cnn2cc(-c3ccn(C)n3)sc12` [Example 188, N-(5-((2-(2,2-dimethylpyrrolidin-1-yl)ethyl)carbamoyl)-3-methylthiophen-2-yl)-2-(1-methyl-1H-pyrazol-3-yl)pyrazolo[5,1-b]thiazole-7-carboxamide], the results for the 50% inhibitory concentration (IC50) (in experiment [1]; in experiment [2]; at PDGFRβ (read-out: PDGFR Cellular IC50)) were 9.5 nM, 683 nM and 347 nM, respectively.
Turning to `Cc1ncc(C(=O)NCCN2CCCC23CCC3)cc1NC(=O)c1cnn2cc(-c3cnn(C)c3C)sc12` [Example 209, N-(5-((2-(5-azaspiro[3.4]octan-5-yl)ethyl)carbamoyl)-2-methyl-pyridin-3-yl)-2-(1,5-dimethyl-1H-pyrazol-4-yl)pyrazolo[5,1-b]thiazole-7-carboxamide], the IC50 in experiment [1] amounted to 0.3 nM; in experiment [2], 2.2 nM; on PDGFRβ (read-out: PDGFR Cellular IC50) it was 2.8 nM.
Take `Cc1cc(C(=O)NCCN2CC[C@@H](O)C2)sc1NC(=O)c1cnn2cc(-c3cnn(C)c3)sc12` [Example 194, (R)—N-(5-((2-(3-hydroxypyrrolidin-1-yl)ethyl)carbamoyl)-3-methylthiophen-2-yl)-2-(1-methyl-1H-pyrazol-4-yl)pyrazolo[5,1-b]thiazole-7-carboxamide]: the half-inhibitory concentration (IC50) is 147 nM in experiment [1], greater than 3000 nM in experiment [2] and greater than 3000 nM on PDGFRβ (read-out: PDGFR Cellular IC50).
Take `COCCn1cc(-c2cn3ncc(C(=O)Nc4cc(NC(=O)CCCN5CCC[C@@H]5C)cnc4C)c3s2)cn1` [Example 216, (S)-2-(1-(2-methoxyethyl)-1H-pyrazol-4-yl)-N-(2-methyl-5-(4-(2-methylpyrrolidin-1-yl)butanamido)pyridin-3-yl)pyrazolo[5,1-b]thiazole-7-carboxamide]: the values for the IC50 (in experiment [1]; in experiment [2]; at PDGFRβ (PDGFR Cellular IC50)) were 1.5 nM, 47.8 nM and 626 nM, respectively.
`Cc1ncc(NC(=O)CN2CCC3(COC3)C2)cc1NC(=O)c1cnn2cc(-c3cnn(C)c3)sc12` [Example 18, N-(5-(2-(2-oxa-6-azaspiro[3.4]octan-6-yl)acetamido)-2-methylpyridin-3-yl)-2-(1-methyl-1H-pyrazol-4-yl)pyrazolo[5,1-b]thiazole-7-carboxamide]: the IC50 in experiment [1] was 0.6 nM; in experiment [2] it was 9.5 nM; on PDGFRβ (read-out: PDGFR Cellular IC50) it was 49.8 nM.
